Legend:
murine QC (mQC) = target: T1, murine QC (mQC) (Mus musculus, UniProt Q9CYK2); experiment: Ki-values of selected inhibitors for murine QC; assay type: biochemical; conditions: murine glutaminyl cyclase
T1 construct: made in house; host or cells: Pichia pastoris (vector pPICZalphaB, secreted)

Solubility in water = assay type: physicochemical

T1 sequence (Q9CYK2 36-362): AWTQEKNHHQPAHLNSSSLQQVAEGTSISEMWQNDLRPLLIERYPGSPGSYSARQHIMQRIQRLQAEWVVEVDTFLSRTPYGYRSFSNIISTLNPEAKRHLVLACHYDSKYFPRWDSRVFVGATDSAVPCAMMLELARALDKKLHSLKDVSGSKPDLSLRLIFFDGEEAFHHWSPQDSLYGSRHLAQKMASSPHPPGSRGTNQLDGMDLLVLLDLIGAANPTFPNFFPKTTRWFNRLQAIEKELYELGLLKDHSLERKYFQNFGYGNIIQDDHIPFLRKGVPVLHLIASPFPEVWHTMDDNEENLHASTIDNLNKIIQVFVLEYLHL

Row | Ki (murine QC (mQC)) [nM] | solubility in water (Solubility in water) | Structure (SMILES)
1 | 173 | soluble in water | COc1ccc(NC(=S)NCCCn2ccnc2)cc1OC [Inhibitor A, 1-(3-(1H-Imidazol-1-yl)propyl)-3-(3,4-dimethoxyphenyl)thiourea]
2 | 51.3 | – | Cc1cc(C)c(N/C(=N/C#N)NCCCn2cncc2C)c(C)c1 [Inhibitor C]

Reference: US8859250B2, “Crystal structure of glutaminyl cyclase” (Probiodrug AG, priority 2010, dated 2014)
